From patent US20030195169A1, “Phosphate prodrugs of fluorooxindoles” (priority 2002, published 2003)

Assays:
[1] = test system: cloned mammalian (mSlo or hSlo) BK channels heterologously expressed in Xenopus oocytes; experiment: BK-mediated outward current, two-electrode voltage clamp in Xenopus oocytes; format: cell-based; settings: 10 μM; at least 5 oocytes
Protocol: (§1) The ability of the compound of Formula II to open BK channels and increase whole-cell outward (K^+) BK-mediated currents was assessed under voltage-clamp conditions by determining their ability to increase cloned mammalian (mSlo or hSlo) BK-mediated outward current heterologously expressed in Xenopus oocytes [Butler, A., et al., Science, 261, pp. 221-224 (1993); and Dworetzky, S. I., et al., Mol. Brain Res., 27, pp. 189-193 (1994)]. The two BK constructs employed represent nearly structurally identical homologous proteins, and have proven to be pharmacologically identical in our tests. To isolate BK current from native (background, non-BK) current, the specific and potent BK channel-blocking toxin iberiotoxin (IBTX) [Galvez, A., et al., J. Biol. Chem, 265, pp. 11083-11090 (1990)] was employed at a supramaximal concentration (50 nM). The relative contribution of BK channels current to total outward current was determined by subtraction of the current remaining in the presence of IBTX (non-BK current) from the current profiles obtained in all other experimental conditions (control, drug, and wash). […] The compound of Formula II was shown in at least 5 oocytes at a concentration of 10 μM to increase BK current to 170% of control of IBTX-sensitive current. […]

[2] = test system: focal cerebral ischemia (MCAO) in the Wistar rat; experiment: Focal stroke model, permanent MCA/CCA occlusion; format: in vivo; settings: 0.3 mg/kg intravenously, single bolus two hours after MCAO; vs vehicle-treated control; 24 hours after MCAO
Protocol: To determine the ability of the compounds of the present invention to reduce cell loss resulting from neuronal ischemia, a standard focal cerebral ischemia is induced by permanent occlusion of the left middle cerebral artery (MCA) and common carotid artery (CCA) with one hour occlusion of the right CCA in the Wistar rat. The surgeries are performed using the sub-temporal approach of A. Tamura, et al., J. Cereb. Blood Flow Metab., 1, pp. 53-60, (1981) and its modifications [K. Osborne, et al., J. Neurol Neurosurg. Psychiatry, 50, pp. 402-410 (1987) and S. Menzies, et al., Neurosurgery, 31, pp. 100-107, (1992)].
The compound of Formula II was evaluated in the focal stroke model involving permanent occlusion of the left MCA (MCAO) and CCA (CCAO) and temporary occlusion of the right CCA in the Wistar rat [Gribkoff, et al. Nature Med. 7, pp. 471-477 (2001)]. This procedure results in a reliably large neocortical infarct volume that is measured by means of vital dye exclusion in serial slices through the brain 24 hours after MCAO. In the present test, compounds were administered using an i.v. or i.p. route of administration two hours after occlusion.

[3] = test system: non-BK native currents in the oocytes; experiment: Non-BK native currents in oocytes (current remaining in presence of IBTX); format: cell-based, Xenopus; settings: at the tested concentration
Protocol: as §1

[4] = cited from earlier work
[5] = test system: rat traumatic brain injury (TBI) model; experiment: Rat traumatic brain injury (lateral fluid percussion) model, intracranial pressure (ICP) measurement; format: in vivo; settings: 0.08 mg/kg
Protocol: To determine the ability of the compounds of the present invention to decrease the amount of neuronal damage following head injury, a standard model of traumatic brain injury was employed. The rat traumatic brain injury (TBI) model is used to evaluate compounds for effectiveness in reversing or preventing the deleterious effects of a concussion-like injury. In general, rats in this model were anesthetized, a craniotomy is performed (surgical opening of the skull), and then saline was injected into the opening to produce a precise pulse of increased intracranial pressure (commonly called a fluid percussion injury). Animals were administered compound at the specified doses at 15 minutes following trauma. Animals were euthanized 48 hours post TBI.
Moderate diffuse brain injury (defined by McIntosh, et al. Neuroscience, 28:233-44 (1989)) was induced by a fluid-percussion device. The apparatus produces contusion via the rapid injection of a saline pulse [˜2.1 to 2.7 atmospheres of pressure (atm)] at a constant duration (21-23 millisecond) into a closed cranial cavity. The saline pulse results in the brief displacement and deformation of the underlying cortex. This model is thought to mimic the clinical situation where a patient experiences a concussion-like injury characterized by brief neurological and systemic physiological alterations without severe structural damage. The fluid percussion device produces brain injury without directly impacting the brain. Diffuse brain injury is achieved by the release of a weighted (4.8 kg) metal pendulum from a predetermined height (McIntosh, et al 1989) that strikes a cork-covered piston at the end of a Plexiglass cylindrical reservoir filled with isotonic saline. Varying volumes of saline are injected into the closed cranial cavity producing a pulse of increased intracranial pressure (ICP). Varying the height of the pendulum controls the magnitude of the injury.
In an alternate method, the severity of brain damage was assessed by Intracranial Pressure (ICP) measurement at various intervals post fluid percussion up to 24 hours. In brief, prior to the fluid percussion a burr hole was made 1 mm from the sagittal suture, centered over the right parietal cortex 5 mm from lambda, 5 mm from bregma. Following fluid percussion injury, the trauma cap and cranioplastic cement were removed. In order to achieve adequate ICP values, while still under anesthesia, the craniotomy cap was re-inserted in its original location post fluid percussion. Pre-cut sterile foil was also placed over the craniotomy cap. Cranioplastic cement was placed over the foil to seal the brain cavity. To obtain continuous ICP measurements the probe was inserted into the burr hole and fixed by cranioplastic cement, the animal was then sutured (using 3-0) and the rat was placed in a Hopper cage to allow for free movement during the experiment. Next, the ICP transducer was connected to a Codman ICP monitor for continuous ICP measurements up to 24 hrs post-TBI or post-sham injury. During this time the animal had regular access to water and food. At 24 hrs post-TBI the experiment was terminated and animals were euthanatized by sodium pentobarbital overdose (130 mg/kg; i.p.).
These experiments consist of a sham-vehicle group (SV), a TBI-vehicle group (TV), sham-drug treated groups (SD; 0.08 mg/kg compound of Example 14 [dose equivalent of 0.05 mg/kg compound of Formula (S)-II]) and TBI-drug treated groups (TD; 0.08 mg/kg compound of Example 14). Each sham group acted as a control for the corresponding TBI group. All of the animals underwent anesthesia and surgery. In the TBI groups, brain injury was induced using the lateral fluid-percussion model. Drug treatment was initiated at 15 minutes post-TBI or sham-injury. […] Five minutes post injury absolute ICP (raw data) increased 6.8 mmHg units in TV animals compared to SV animals (SV-5.55 vs. TV-12.35). […]

[6] = Solubility (qualitative statements); format: physicochemical
[7] = Rat blood levels of compound (S)-II after prodrug administration; format: in vivo, male Sprague-Dawley rats; settings: intravenous bolus, dose equivalent to 1 mg/kg of (S)-II; whole blood; LC/MS/MS; n=3 rats/timepoint
Protocol: The compound of Formula (S)-II or a prodrug of Formula I was administered intravenous bolus to male Sprague-Dawley rats (n=3 rats/timepoint) at a target dose equivalent to 1 mg/kg of the compound of Formula (S)-II. At T=0.25, 1 and 2 hours post-dose, whole blood samples were collected and extracted with acetonitrile. Blood extracts were analyzed by LC/MS/MS for levels of the compound of Formula (S)-II.

COc1ccc(Cl)cc1C1(F)C(=O)Nc2cc(C(F)(F)F)ccc21 (racemic) [compound of Formula II, 3-(5-chloro-2-methoxyphenyl)-1,3-dihydro-3-fluoro-6-(trifluoromethyl)-2H-indol-2-one]
BK current, % of control of IBTX-sensitive current [1]: 170 % of control | reduction of cortical infarct volume [2]: about 28% | effect on non-BK native currents in the oocytes [3]: did not effect non-BK native currents

COc1ccc(Cl)cc1[C@]1(F)C(=O)Nc2cc(C(F)(F)F)ccc21 [Compound of Formula (S)-II, (3S)-(+)-(5-chloro-2-methoxyphenyl)-1,3-dihydro-3-fluoro-6-(trifluoromethyl)-2H-indol-2-one]
aqueous solubility [4]: low aqueous solubility

COc1ccc(Cl)cc1[C@]1(F)C(=O)N(COP(=O)([O-])[O-])c2cc(C(F)(F)F)ccc21.[K+].[K+] [Example 14, (S)-Phosphoric acid mono-[3-(5-chloro-2-methoxy-phenyl)-3-fluoro-2-oxo-6-trifluoromethyl-2,3-dihydro-indol-1-ylmethyl] ester, potassium salt]
intra-animal mean ICP reduction, TD ([5]; 30 minutes post injury): −2.85 mmHg | intra-animal mean ICP reduction, TD ([5]; 45 minutes post injury): −3.95 mmHg | absolute ICP, TD vs TV, significance ([5]; 45 minutes, 60 minutes, 2, 3, 4 and 24 hours post-TBI): significantly different from TV | intra-animal mean ICP reduction, TD ([5]; 60 min post injury): −4.5 mmHg | reduction of absolute ICP, TD vs TV ([5]; 60 minutes post injury (45 minutes post-drug injection)): 3.1 mmHg units | intra-animal mean ICP reduction, TD ([5]; 2 hours post injury): −4.3 mmHg | intra-animal mean ICP reduction, TD ([5]; 3 hr post injury): −4.3 mmHg | intra-animal mean ICP reduction, TD ([5]; 4 hours post injury): −4.15 mmHg | intra-animal mean ICP reduction, sham-drug group (SD) ([5]; 4 hours post-sham injury): −2.1 mmHg | intra-animal mean ICP reduction, TD ([5]; 24 hours post injury): −3.05 mmHg | ICP, SD vs SV, significance ([5]; sham injury, until 4 hours post-sham injury): did not significantly differ from SV

COc1ccc(Cl)cc1[C@]1(F)C(=O)N(COP(=O)([O-])[O-])c2cc(C(F)(F)F)ccc21.[Mg+2] [Example 18, (S)-Phosphoric acid mono-[3-(5-chloro-2-methoxy-phenyl)-3-fluoro-2-oxo-6-trifluoromethyl-2,3-dihydro-indol-1-ylmethyl] ester, magnesium salt]
solubility in water [6]: marginally soluble in water | solubility in organic solvents ([6]; relative to water): more soluble in organic solvents

(S)-Phosphoric acid mono-[3-(5-chloro-2-methoxy-phenyl)-3-fluoro-2-oxo-6-trifluoromethyl-2,3-dihydro-indol-1-ylmethyl] ester, mono tetrabutylammonium salt [Example 2]
Truncated Blood AUC(0.25-2 hr) Compound of Formula (S)-II [7]: 0.188 µg·h/mL
